Columns and labels:
mouse = tested on: mouse; parameters: method as in Martellotta et al., 1998; details: 12.5 mg/kg i.p., ref Martellotta et al., 1998; cited from earlier work
rat [1] = tested on: rat; parameters: method as in Colombo et al., 1999; details: 400 mg/kg i.p., ref Colombo et al., 1999; cited from earlier work
rat [2] = tested on: rat; parameters: method as in Schmidt-Mutter et al., 1998; details: 300 mg/kg i.p., ref Schmidt-Mutter et al., 1998; cited from earlier work
rat [3] = tested on: rat; parameters: method as in Snead III, 1996; details: 100-500 mg/kg i.p., ref Snead III, 1996; cited from earlier work
[4] = Metabolite formation kinetics in MLMs; type: in vitro ADME; details: mouse liver microsomes
Method: (§1) Microsomal incubations were conducted as described above with modifications. […] The K m was calculated using nonlinear regression in Graphpad Prism. Due to the lack of authentic standard and relatively short rate of parent disappearance, the maximum formation velocity (V max) could not be determined for either metabolites.

rat [5] = tested on: rat; parameters: method as in Lamb et al., 2003; details: rat, 3.2, 32 mg/kg i.p; ref Lamb et al., 2003; cited from earlier work
GHB receptor = target: GHB receptor; parameters: method as in Molnár et al. 2006; details: ref Molnár et al. 2006; cited from earlier work
rat [6] = tested on: rat; parameters: method as in Colombo et al., 1995; details: rat, 12.5, 25, 50 mg/kg i.p.; ref Colombo et al., 1995; cited from earlier work
[7] = Metabolite formation kinetics in HLMs; type: in vitro ADME; details: human liver microsomes
Method: as §1

[8] = tested on: gamma‐butyrolactone‐treated mice; test: GBL‐mediated response protection by NCS‐382 in the absence and presence of diclofenac; type: in vivo; details: mouse
Method: Wild‐type C57/B6 mice (mixed gender, n = 7) were bred in‐house, weaned at day of life (DOL) 21, and randomized to a treatment sequence (Fig. 2). […] Thirty minutes later, mice were given an i.p. injection of GBL (100 mg/kg diluted in PBS) and were placed into a clean round arena (~10 inches in diameter) and were allowed access to food and water. Mice were recorded on a camera operated by Serena acquisition software (recorded for 10 min). At 5 and 10 min following GBL, righting reflex was assessed. These procedures were repeated daily with ~24 h in between sessions. Data file names were coded such that treatments were blinded at the time of video data analysis. During video data analysis, the time of which noticeable loss of motor function or coordination (e.g., “loss of motor function”) was observed, and the time taken for the subject to enter a dissociative state and fall into an unsupported prone position (e.g., “time to loss of motion”) was monitored. Righting reflex was evaluated by placing the mouse in a supine position and the time to return to all four paws was recorded based on the timestamp of the playback video. Data for each treatment group were expressed as the mean and standard deviation, and statistical significance was evaluated using one‐way ANOVA and Tukey post hoc t test (P < 0.05).
Wild‐type C57/B6 mice (mixed gender, n = 7) were bred in‐house, weaned at day of life (DOL) 21, and randomized to a treatment sequence. […] Thirty minutes later, mice were given an i.p. injection of GBL (100 mg/kg in PBS) and were placed into a clean round arena (~10 inches in diameter) and were allowed access to food and water. Mice were recorded on a camera operated by Sirena acquisition software (recorded for 10 min). At 5 and 10 min following GBL, righting reflex was assessed. These procedures were repeated daily with ~24 h in between sessions. Data files names were coded such that video analysis was blinded at the time of data recording.

rat [9] = tested on: rat; parameters: method as in Pedraza et al., 2009; details: 10 mg/kg i.p., ref Pedraza et al., 2009; cited from earlier work
[10] = NCS‐382–diclofenac interaction study (inhibition of NCS‐382 glucuronidation); details: mouse
Method: In this study, mice (n = 3–4 per group) were assigned (balanced for weight and gender) to one of three treatments and collected at one of three time points (0.5, 1, or 2 h).

rat [11] = tested on: rat; parameters: method as in Poggioli et al., 1999; details: rat, 25, 100, 200 mg/kg p.o.; ref Poggioli et al., 1999; cited from earlier work
rat [12] = tested on: rat; parameters: method as in Hicks et al., 2004; details: 50 mg/kg i.v., ref Hicks et al., 2004; cited from earlier work
aldh5a1^−/− mice = tested on: aldh5a1^−/− mice; parameters: method as in Gupta et al. 2002; details: ref Gupta et al. 2002; cited from earlier work
[13] = Excretion of NCS‐382 in urine and feces (metabolic cages); type: in vivo; details: mouse, pooled urine of 3 mice
Method: To ensure sufficient volumes of urine could be collected in each of the 2 h time intervals (baseline, 0–2, 2–4, 4–6, 6–8 h), three mice were dosed simultaneously and their urine and feces pooled for analysis. The total dose in μg administered to the three animals was therefore used to calculate the percent of the dose excreted in the urine pooled from all three mice. Animals were allowed ad libitum access to food and water of which the intake of each was monitored.
Samples (3 μL) were injected onto a Kinetex PFP (50 × 2.1 mm, 1.7 μm particle size) UPLC column and eluted with a binary gradient consisting of water with 0.1% formic acid (mobile phase A) and methanol with 0.1% formic acid (mobile phase B). […] Eluent was directed to waste for the initial 0.4 min then to an ABI Sciex 6500 Qtrap tandem mass spectrometer. […] Where necessary, samples were diluted in blank matrices for analysis.
Pharmacokinetic outcomes were obtained via standard noncompartmental methods using Kinetica (version 5.1, Thermo Fisher Scientific, Waltham, MA). The maximum concentration (C max) was obtained directly from the concentration–time profiles. Area under the concentration–time curve (AUC) from time zero to the last collected time point was determined using the trapezoidal method with linear up/log down interpolation.

pigeon = tested on: pigeon; parameters: method as in Koek et al., 2006; details: pigeon, 54, 178, 320, 560 mg/kg, route ns; ref Koek et al., 2006; cited from earlier work
rat [14] = tested on: rat; parameters: method as in Baker et al., 2008; details: rat, 25, 50, 100 mg/kg i.g.; ref Baker et al., 2008; cited from earlier work
[15] = 120 min, read-out: Km for dehydrogenation
[16] = saturation not obtained, read-out: Km for glucuronidation

O=C(O)/C=C1\CCCc2ccccc2C1O (stereo not drawn) [NCS‐382, 6,7,8,9‐tetrahydro‐5‐hydroxy‐5H‐benzo‐cyclohept‐6‐ylideneacetic acid]
abuse potential of GHB (mouse): GHB was shown to have abuse potential, which was blocked by NCS-382. | blood ethanol levels (rat [1]): NCS-382 reduces blood ethanol levels, likely due to a lessened absorption of ethanol from the gastrointestinal tract. | reversal of the anxiolytic effect of GHB (rat [2]): The anxiolytic effect of GHB were reversed by the benzodiazepine receptor antagonist, flumazenil, but not by naloxone or NCS-382. | two chemically induced models for absence seizures (rat [3]): NCS-382 was protective against two chemically induced models for absence seizures. | Km [4, 15]: 29.5 ± 10 µM | Km [4, 16]: > 100 µM | motor effects of GHB (rat [5]): NCS-382 did not antagonize the motor effects of GHB, consistent with the belief that many of the behavioral actions of exogenously administered GHB result from GHB's actions at sites other than the GHB receptor. | Ki (GHB receptor): 1200 nM | discriminative stimulus effects of GHB (rat [6]): Blockade of the discriminative stimulus effects of gamma-hydroxybutyric acid (GHB) by the GHB receptor antagonist NCS-382. | Km [7, 15]: 12.7 ± 4.8 µM | Km [7, 16]: > 100 µM | time to loss of motor function compared to vehicle control ([8]; NCS‐382 300 mg/kg with diclofenac 25 mg/kg i.p. 30 min before GBL 100 mg/kg i.p.): significantly improved | time to loss of motor function compared to vehicle control ([8]; given alone i.p. (NCS‐382 300 mg/kg or diclofenac 25 mg/kg) 30 min before GBL 100 mg/kg i.p.): trended toward increasing | neurological damage and working-memory impairment induced by low-dose GHB (rat [9]): NCS-382 prevents both neurological damage and working- memory impairment induced by low-dose GHB. | AUC(0-t) ([10]; both, in vivo, 300 mg/kg): 411 µM·h | Brain AUC0–2 h [90% CI] ([10]; treatment NCS‐382 300 mg/kg + Diclofenac 25 mg/kg): 182 [164–200] ^a nmol/g/tissue*h | Brain AUC0–2 h [90% CI] ([10]; treatment NCS‐382 300 mg/kg alone): 128 [115–141] nmol/g/tissue*h | gastric emptying (rat [11]): dose dependently, ↓ gastric emptying | prokinetic effect of GHB (rat [11]): antagonized the prokinetic effect of GHB | increase in heart rate induced by GHB (rat [12]): reversed the ↑ in heart rate | pressor response induced by GHB (rat [12]): not the pressor response | lifespan of SSADHD mice (aldh5a1^−/− mice): significant lifespan extension | total dose administered recovered unchanged in the urine over 8 h ([13]; 100 mg/kg): 0.1% | total dose administered recovered unchanged in the urine over 8 h ([13]; 300 mg/kg): 1.1% | total dose administered recovered unchanged in the urine over 8 h ([13]; 500 mg/kg): 3.3% | effects of diazepam (pigeon): GHB, its precursors 1,4-BD and GBL, and NCS-382 did not attenuate the effects of diazepam. | GHB's (300 mg/kg) discriminative stimulus effects (rat [14]): GHB's (300 mg/kg) discriminative stimulus effects were obliterated by the GABAB receptor antagonist, CGP-35348 and slightly attenuated by NCS 382.
